Test results as given in BindingDB's records for doi:10.1016/j.bmc.2010.11.049 (Bryn Mawr College, 2011).
pIC50: −log10 of the molar value.

Experiment: Inhibition of HIV1 YU2 gp120 binding to CD4 expressing Cf2Th-CD4/CCR5 cells assessed as inhibition of viral infection after 48 hrs

| SMILES | pIC50 |
| --- | --- |
| CC1(C)CC(NC(=O)C(=O)Nc2ccc(-n3cc(CCc4ccccc4)nn3)cc2)CC(C)(C)N1 [N1-(4-(4-phenethyl-1H-1,2,3-triazol-1-yl)phenyl)-N2-(2,2,6,6-tetramethylpiperidin-4-yl)oxalamide] | < 4.00 |
| CC1(C)CC(NC(=O)C(=O)Nc2ccc(-n3cc(-c4ccccc4)nn3)cc2)CC(C)(C)N1 [N1-(4-(4-phenyl-1H-1,2,3-triazol-1-yl)phenyl)-N2-(2,2,6,6-tetramethylpiperidin-4-yl)oxalamide] | < 4.00 |
| CC1(C)CC(NC(=O)C(=O)Nc2ccc(N=[N+]=[N-])cc2)CC(C)(C)N1 [N1-(4-azidophenyl)-N2-(2,2,6,6-tetramethylpiperidin-4-yl)oxalamide] | < 4.00 |
| O=C(NCC1COc2ccccc2O1)C(=O)Nc1ccc(Br)cc1 (stereo not given) [N1-(4-bromophenyl)-N2-((2,3-dihydrobenzo[b][1,4]dioxin-2-yl)methyl)oxalamide] | < 4.00 |
| O=C(NCc1ccco1)C(=O)Nc1ccc(Br)cc1 [N1-(4-bromophenyl)-N2-(furan-2-ylmethyl)oxalamide] | < 4.00 |
| O=C(NCC1OCCc2ccccc21)C(=O)Nc1ccc(Br)cc1 (stereo not given) [N1-(4-bromophenyl)-N2-(isochroman-1-ylmethyl)oxalamide] | < 4.00 |
| O=C(Nc1ccc(Br)cc1)C(=O)Nc1cccc2ccccc12 [N1-(4-bromophenyl)-N2-(naphthalen-1-yl)oxalamide] | < 4.00 |
| CC1(C)CC(NC(=O)CC(=O)Nc2ccc(Br)cc2)CC(C)(C)N1 [N1-(4-bromophenyl)-N3-(2,2,6,6-tetramethylpiperidin-4-yl)malonamide] | < 4.00 |
| CC1(C)CC(NC(=O)CCC(=O)Nc2ccc(Br)cc2)CC(C)(C)N1 [N1-(4-bromophenyl)-N4-(2,2,6,6-tetramethylpiperidin-4-yl)succinamide] | < 4.00 |
| CC1(C)CC(NC(=O)C(=O)Nc2ccc(Cl)cc2C(F)(F)F)CC(C)(C)N1 [N1-(4-chloro-2-(trifluoromethyl)phenyl)-N2-(2,2,6,6-tetramethylpiperidin-4-yl)oxalamide] | < 4.00 |
| CCOc1cc(Cl)ccc1NC(=O)C(=O)NC1CC(C)(C)NC(C)(C)C1 [N1-(4-chloro-2-ethoxyphenyl)-N2-(2,2,6,6-tetramethylpiperidin-4-yl)oxalamide] | < 4.00 |
| CC1(C)CC(NC(=O)C(=O)Nc2ccc(Cl)cc2F)CC(C)(C)N1 [N1-(4-chloro-2-fluorophenyl)-N2-(2,2,6,6-tetramethylpiperidin-4-yl)oxalamide] | < 4.00 |
| CC(C)COc1cc(Cl)ccc1NC(=O)C(=O)NC1CC(C)(C)NC(C)(C)C1 [N1-(4-chloro-2-isobutoxyphenyl)-N2-(2,2,6,6-tetramethylpiperidin-4-yl)oxalamide] | < 4.00 |
| COc1cc(Cl)ccc1NC(=O)C(=O)NC1CC(C)(C)NC(C)(C)C1 [N1-(4-chloro-2-methoxyphenyl)-N2-(2,2,6,6-tetramethylpiperidin-4-yl)oxalamide] | < 4.00 |
| Cc1cc(Cl)ccc1NC(=O)C(=O)NC1CC(C)(C)NC(C)(C)C1 [N1-(4-chloro-2-methylphenyl)-N2-(2,2,6,6-tetramethylpiperidin-4-yl)oxalamide] | < 4.00 |
| CN1C(C)(C)CC(NC(=O)C(=O)Nc2ccc(Cl)c(F)c2)CC1(C)C [N1-(4-chloro-3-fluorophenyl)-N2-(1,2,2,6,6-pentamethylpiperidin-4-yl)oxalamide] | 4.18 |
| CC1(C)C2CCC1(C)C(NC(=O)C(=O)Nc1ccc(Cl)c(F)c1)C2 (stereo not given) [N1-(4-chloro-3-fluorophenyl)-N2-(1,7,7-trimethylbicyclo[2.2.1]heptan-2-yl)oxalamide] | < 4.00 |
| CCn1ncnc1C(C)NC(=O)C(=O)Nc1ccc(Cl)c(F)c1 (stereo not given) [N1-(4-chloro-3-fluorophenyl)-N2-(1-(1-ethyl-1H-1,2,4-triazol-5-yl)ethyl)oxalamide] | < 4.00 |

| SMILES | pIC50 |
| --- | --- |
| CC(NC(=O)C(=O)Nc1ccc(Cl)c(F)c1)C(c1ccccc1Cl)N1CCOCC1 (stereo not given) [N1-(4-chloro-3-fluorophenyl)-N2-(1-(2-chlorophenyl)-1-morpholinopropan-2-yl)oxalamide] | < 4.00 |
| CC(NC(=O)C(=O)Nc1ccc(Cl)c(F)c1)c1ccc2c(c1)NC(=O)CO2 (stereo not given) [N1-(4-chloro-3-fluorophenyl)-N2-(1-(3-oxo-3,4-dihydro-2H-benzo[b][1,4]oxazin-6-yl)ethyl)oxalamide] | < 4.00 |
| CC(NC(=O)C(=O)Nc1ccc(Cl)c(F)c1)c1ccc(S(N)(=O)=O)cc1 (stereo not given) [N1-(4-chloro-3-fluorophenyl)-N2-(1-(4-sulfamoylphenyl)ethyl)oxalamide] | < 4.00 |
| CC(C)N1CCC(NC(=O)C(=O)Nc2ccc(Cl)c(F)c2)CC1 [N1-(4-chloro-3-fluorophenyl)-N2-(1-isopropylpiperidin-4-yl)oxalamide] | < 4.00 |
| CN1CCCC(NC(=O)C(=O)Nc2ccc(Cl)c(F)c2)C1 (stereo not given) [N1-(4-chloro-3-fluorophenyl)-N2-(1-methylpiperidin-3-yl)oxalamide] | < 4.00 |
| CN1CCCC(ONC(=O)C(=O)Nc2ccc(Cl)c(F)c2)C1 (stereo not given) [N1-(4-chloro-3-fluorophenyl)-N2-(1-methylpiperidin-3-yloxy)oxalamide] | < 4.00 |
| CN1CCC(NC(=O)C(=O)Nc2ccc(Cl)c(F)c2)CC1 [N1-(4-chloro-3-fluorophenyl)-N2-(1-methylpiperidin-4-yl)oxalamide] | < 4.00 |
| CCCN1CCCC(NC(=O)C(=O)Nc2ccc(Cl)c(F)c2)C1 (stereo not given) [N1-(4-chloro-3-fluorophenyl)-N2-(1-propylpiperidin-3-yl)oxalamide] | 4.24 |
| CCCN1CCC(NC(=O)C(=O)Nc2ccc(Cl)c(F)c2)CC1 [N1-(4-chloro-3-fluorophenyl)-N2-(1-propylpiperidin-4-yl)oxalamide] | < 4.00 |
| O=C(Nc1ccc(Cl)c(F)c1)C(=O)Nc1cccc2[nH]ncc12 [N1-(4-chloro-3-fluorophenyl)-N2-(1H-indazol-4-yl)oxalamide] | < 4.00 |
| CC1(C)CC(NC(=O)C(=O)Nc2ccc(Cl)c(F)c2)CC(C)(C)N1 [N1-(4-chloro-3-fluorophenyl)-N2-(2,2,6,6-tetramethylpiperidin-4-yl)oxalamide] | 4.13 |
| CC1(C)CC(NC(=O)C(=O)Nc2ccc(Cl)c(F)c2)CC(C)(C)O1 [N1-(4-chloro-3-fluorophenyl)-N2-(2,2,6,6-tetramethyltetrahydro-2H-pyran-4-yl)oxalamide] | < 4.00 |
| CC(C)N1CCCCC1CCNC(=O)C(=O)Nc1ccc(Cl)c(F)c1 (stereo not given) [N1-(4-chloro-3-fluorophenyl)-N2-(2-(1-isopropylpiperidin-2-yl)ethyl)oxalamide] | 4.57 |
| CC1CN(CCNC(=O)C(=O)Nc2ccc(Cl)c(F)c2)CC(C)O1 (stereo not given) [N1-(4-chloro-3-fluorophenyl)-N2-(2-(2,6-dimethylmorpholino)ethyl)oxalamide] | < 4.00 |
| CN1CCN(C(CNC(=O)C(=O)Nc2ccc(Cl)c(F)c2)c2ccccc2Cl)CC1 (stereo not given) [N1-(4-chloro-3-fluorophenyl)-N2-(2-(2-chlorophenyl)-2-(4-methylpiperazin-1-yl)ethyl)oxalamide] | 4.13 |
| CC1CCCCN1C(C)CNC(=O)C(=O)Nc1ccc(Cl)c(F)c1 (stereo not given) [N1-(4-chloro-3-fluorophenyl)-N2-(2-(2-methylpiperidin-1-yl)propyl)oxalamide] | < 4.00 |
| O=C(NCC(c1ccc(Cl)cc1)N1CCCC1)C(=O)Nc1ccc(Cl)c(F)c1 (stereo not given) [N1-(4-chloro-3-fluorophenyl)-N2-(2-(4-chlorophenyl)-2-(pyrrolidin-1-yl)ethyl)oxalamide] | 4.21 |
